In PubChem BioAssay (NCI) one finds GI50 and TGI data, which are given here for 7 molecules.

Where “and” joins values, the source holds several entries; their conditions need not be identical. Equal entries are not always repeated.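 Grown in 96-well plates, cells were treated for 48 hours with each compound at five concentrations. Insufficient inhibition: endpoint recorded as highest concentration tested. Here, GI50 denotes the concentration required for 50% inhibition of growth. TGI denotes the concentration required for complete inhibition of growth.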

Common to all, as to experiment: NCI tumour cell line growth inhibition, 48 h
The subject of experiment [1] is BT-549 breast.
Experiment [2] deals with EKVX NSCLC.
For experiment [3], the system named is HCT-116 colon.
The subject of experiment [4] is HOP-92 NSCLC.
The test system of experiment [5] is HT29 colon.
Experiment [6] relates to K-562 leukemia.
Experiment [7] concerns SF-295 CNS.
The test system of experiment [8] is SF-539 CNS.
Experiment [9] concerns SNB-19 CNS.
For experiment [10], the system named is UACC-62 melanoma.

Take `C/C(=C(/c1ccc(O)cc1)c1ccc(Cl)cc1)c1ccccc1`: the GI50 in [1] is 0.575 µM; in experiment [2], 0.698 µM; in [3], 0.543 µM; in [4] it was 0.448 µM; in experiment [5], 0.852 µM; in experiment [6], 0.539 µM. Besides, the GI50 in experiment [7] was 0.603 µM; in experiment [8] it was 0.545 µM; in [9] it was 0.76 µM; in experiment [10] it was 0.473 µM. The TGI in experiment [1] worked out at 1.53 µM; in [2], 2.12 µM; in experiment [3] it was 1.27 µM; in experiment [4] it was 1.09 µM; in experiment [5], 3.17 µM; in experiment [6], 2.83 µM. Besides, the TGI in experiment [7] stood at 1.5 µM; in experiment [8] it was 1.25 µM; in [9], 2.18 µM; in [10], 1.06 µM.
Consider `COc1cc2c(c(OC)c1OC)-c1ccc(O)c(=O)cc1[C@@H](NC(C)=O)CC2`, for which the GI50 was 24 µM in experiment [1]; 4.23 µM in experiment [3]; 9.92 µM in experiment [4]; 6.91 µM in [5]; 6.91 µM in [6]; 5.45 µM in experiment [7]. Further, the values for the GI50 in [8], in experiment [9] and in experiment [10] were 6.08 µM, 7.14 µM and 3.82 µM, respectively. The TGI in experiment [1] was > 100 µM and 39.4 µM; in [2] it was more than 100 µM; in experiment [3] it was more than 100 µM; in [4] it was > 100 µM and 58.3 µM; in experiment [5], > 100 µM and 89.7 µM; in experiment [6], more than 100 µM. The TGI is > 100 µM and 97.3 µM in experiment [7]; 45.5 µM and 44 µM in experiment [8]; more than 100 µM in [9]; 18.1 µM and 30 µM in [10].
For the molecule `COc1cc2ncnc3c2cc1OCCCCCN(C)Cc1ccc(Br)cc1N3`, the GI50 in experiment [1] is 21.8 µM and 6.87 µM; in experiment [2] it was 0.24 µM; in experiment [3], 13.9 µM and 1.48 µM; in [4], 3.61 µM and 1 µM; in [5] it was 6.34 µM and 3.35 µM; in experiment [6], 3.98 µM and 2.93 µM. For the same molecule, the GI50 is 14.1 µM and 5.13 µM in experiment [7]; more than 100 µM in [8]; 24.6 µM and > 10 µM in [9]; 2.35 µM and 0.969 µM in [10]. Also, the TGI in [1] is more than 100 µM; in experiment [2], more than 10 µM; in experiment [3] it was more than 100 µM; in experiment [4], 71.5 µM and > 10 µM; in experiment [5], more than 100 µM; in [6], more than 100 µM. Besides, the TGI in [7], in experiment [8], in experiment [9] and in [10] was more than 100 µM throughout.
In the case of `Cc1ccc2sc3ccc(N)cc3c(=O)c2c1`, the TGI was more than 100 µM in [1]; more than 100 µM in experiment [2]; more than 100 µM in experiment [3]; 98.3 µM in [4]; more than 100 µM in experiment [5]; more than 100 µM in experiment [6]. The TGI in [7], in experiment [8], in experiment [9] and in experiment [10] was more than 100 µM in each case.
Take `NNS(=O)(=O)c1cc(C(=O)O)cc(C(=O)O)c1`: the TGI in experiment [1], in experiment [2], in experiment [3], in experiment [4], in [5] and in experiment [6] was more than 100 µM in each case. Moreover, the TGI in [7], in [8], in experiment [9] and in [10] was more than 100 µM in each case.
Turning to `Cc1cnc(Nc2ccc(OCCN3CCCC3)cc2)nc1Nc1cccc(S(=O)(=O)NC(C)(C)C)c1`, the GI50 is 1.74 µM and 2.68 µM in [1]; 0.345 µM in experiment [3]; 0.196 µM and 0.384 µM in experiment [4]; 0.0973 µM and 0.564 µM in [5]; 0.15 µM and 0.676 µM in experiment [6]; 0.304 µM and 2.57 µM in experiment [7]. Besides, the GI50 is 0.332 µM and 1.52 µM in experiment [8]; 2.66 µM and 3.4 µM in experiment [9]; 0.491 µM and 1.92 µM in experiment [10]. The TGI in [1] is 4.38 µM and > 9.47 µM; in [2], 12.9 µM and > 10 µM; in [3], 4.94 µM and > 6.43 µM; in experiment [4], 2.75 µM and 1.88 µM; in [5], 2.28 µM and 5.12 µM; in experiment [6], more than 33.6 µM. Besides, the TGI was 12.4 µM and > 10 µM in experiment [7]; 2.15 µM and 4.91 µM in experiment [8]; 15.6 µM and > 10 µM in experiment [9]; 8.14 µM and > 10 µM in [10].
On to `CSc1nsc(S/C=C\C(=O)c2ccc(C)cc2)n1`, for which the GI50 in experiment [1] is 17.5 µM; in experiment [2], 22.5 µM; in experiment [3], 13 µM; in experiment [4] it was 17.3 µM; in [5] it was 19 µM; in experiment [6] it was 6.37 µM. For the same molecule, the GI50 in experiment [7] is 18.2 µM; in [8] it was 19 µM; in experiment [9], 28.1 µM; in experiment [10], 18.5 µM. Moreover, the TGI in [1] was 40.3 µM; in experiment [2], 49.7 µM; in experiment [3], 25.7 µM; in [4] it was 35.1 µM; in [5] it was more than 57.1 µM; in experiment [6], more than 100 µM. In addition, the TGI in [7] is 40.4 µM; in experiment [8] it was 36.2 µM; in experiment [9], more than 68.2 µM; in [10], 38.2 µM.
